The text below walks through data of patent US10681908B2, “Molecules having pesticidal utility, and intermediates, compositions, and processes, related thereto” (Dow AgroSciences LLC, priority 2016, dated 2020).

What all share (format): in vivo
The test system of data set [1] is Beet Armyworm (Spodoptera exigua, LAPHEG). Kind of data set: Bioassay on Beet Armyworm (BAW), 128-well diet tray assay. The settings on record: 168 h, 50 μg/cm^2 on artificial diet, second instar larvae, five to seven days, 25° C., read-out: BAW % Control (or Mortality) rating. In outline:
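Mortality of second-instar larvae (one to five per well) was scored after five to seven days at 25 °C under 14:10 light-dark and averaged across eight wells. Each well's diet had received 50 μg/cm^2 test molecule from a 90:10 acetone-water solution, allowed to dry before infestation.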

In data set [2] the test system is Cabbage Looper (Trichoplusia ni, TRIPNI). Description: Bioassay on Cabbage Looper (CL), 128-well diet tray assay. Conditions: 168 h, 50 μg/cm^2 on artificial diet, second instar larvae, five to seven days, 25° C., read-out: CL % Control (or Mortality) rating. The essentials: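 Percent mortality, averaged over eight wells, scored after five to seven days at 25° C. under 14:10 light-dark. Each well held 1–5 second-instar larvae on artificial diet treated with 50 μg/cm^2 test molecule applied in 90:10 acetone-water and dried.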

Data set [3] concerns Green Peach Aphid (Myzus persicae, MYZUPE). Kind of data set: Bioassay on Green Peach Aphid (GPA), foliar spray on infested cabbage seedlings. The settings on record: 72 h, 200 ppm foliar spray, three days, Abbott corrected % control, read-out: GPA % Control (or Mortality) rating. The procedure:
Example B: Bioassays on Green Peach Aphid (Myzus Persicae, MYZUPE) (“GPA”)
Certain molecules disclosed in this document were tested against GPA using procedures described in the following example. In the reporting of the results, the “GPA & YFM Rating Table” was used (See Table Section).
Cabbage seedlings grown in 3-inch pots, with 2-3 small (3-5 cm) true leaves, were used as test substrate. The seedlings were infested with 20-50 GPA (wingless adult and nymph stages) one day prior to chemical application. Four pots with individual seedlings were used for each treatment. Test molecules (2 mg) were dissolved in 2 mL of acetone/methanol (1:1) solvent, forming stock solutions of 1000 ppm test molecule. The stock solutions were diluted 5× with 0.025% Tween 20 in water to obtain the solution at 200 ppm test molecule. A hand-held aspirator-type sprayer was used for spraying a solution to both sides of […] leaves until runoff. Reference plants (solvent check) were sprayed with the diluent only containing 20% by volume of acetone/methanol (1:1) solvent. Treated plants were held in a holding room for three days at approximately 25° C. and ambient relative humidity (RH) prior to grading. Evaluation was conducted by counting the number of live aphids per plant under a microscope. Percent Control was measured by using Abbott's correction formula (W. S. Abbott, “A Method of Computing the Effectiveness of an Insecticide” J. Econ. Entomol. 18 (1925), pp. 265-267) as follows. Corrected % Control=100*(X−Y)/X • where • X=No. of live aphids on solvent check plants and • Y=No. of live aphids on treated plants

Data set [4] concerns Yellow Fever Mosquito (Aedes aegypti, AEDSAE). Conditions: about 1 day-old larvae, 3 days, room temperature, scored on mortality. In outline: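 Compounds from DMSO master plates (4000 ppm stock) diluted with 90:10 water:acetone, then about 1-day-old larvae in liver-powder water added. Held covered at room temperature for 3 days; each well scored for mortality.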

For orientation: mortality means the percentage killed. In the case of `C[C@H](CSCC(F)(F)F)NC(=O)c1ccc(/C(F)=C/C(c2cc(Cl)c(Cl)c(Cl)c2)C(F)(F)F)cc1C(F)(F)F` (stereo partly drawn) [F1, 4-((Z)-1,4,4,4-tetrafluoro-3-(3,4,5-trichlorophenyl)but-1-en-1-yl)-N—((R)-1-((2,2,2-trifluoroethyl)thio)propan-2-yl)-2-(trifluoromethyl)benzamide], the mortality at 50 µg/cm2 in data set [1] and in data set [2] was 50 to 100% in each case. Further, in data set [3], the mortality at 200 ppm lay in the range of 0 to 80%.
Consider `C[C@H](CS(=O)(=O)CC(F)(F)F)NC(=O)c1ccc(/C(F)=C/C(c2cc(Cl)c(Cl)c(Cl)c2)C(F)(F)F)cc1C(F)(F)F` (stereo partly drawn) [F2, 4-((Z)-1,4,4,4-tetrafluoro-3-(3,4,5-trichlorophenyl)but-1-en-1-yl)-N—((R)-1-((2,2,2-trifluoroethyl)sulfonyl)propan-2-yl)-2-(trifluoromethyl)benzamide], for which the mortality at 50 µg/cm2 in data set [1] and in data set [2] was 50 to 100% each time. In addition, in data set [3], the mortality at 200 ppm fell in the range of 0 to 80%.
With `C[C@H](C[S+]([O-])CC(F)(F)F)NC(=O)c1ccc(/C(F)=C/C(c2cc(Cl)c(Cl)c(Cl)c2)C(F)(F)F)cc1C(F)(F)F` (stereo partly drawn) [F3, 4-((Z)-1,4,4,4-tetrafluoro-3-(3,4,5-trichlorophenyl)but-1-en-1-yl)-N-((2R)-1-((2,2,2-trifluoroethyl)sulfinyl)propan-2-yl)-2-(trifluoromethyl)benzamide], the mortality at 50 µg/cm2 in data set [1] and in data set [2] was 50 to 100% each time. Also, the mortality at 200 ppm in data set [3] lay in the range of 0 to 80%.
For `C[C@H](CSCC(F)(F)F)NC(=O)c1ccc(/C(F)=C/C(c2cc(Br)c(Cl)c(Br)c2)C(F)(F)F)cc1C(F)(F)F` (stereo partly drawn) [F21, 4-((Z)-3-(3,5-Dibromo-4-chlorophenyl)-1,4,4,4-tetrafluorobut-1-en-1-yl)-N—((R)-1-((2,2,2-trifluoroethyl)thio)propan-2-yl)-2-(trifluoromethyl)benzamide], the mortality at 50 µg/cm2 in data set [1] and in data set [2] was 50 to 100% in each case. For the same compound, the mortality at 200 ppm in data set [3] lay in the range of 80 to 100%. Also, in data set [4], the “YFM % Control (or Mortality) rating” value was “A (80-100)”.
Regarding `C[C@H](CS(=O)(=O)CC(F)(F)F)NC(=O)c1ccc(/C(F)=C/C(c2cc(Br)c(Cl)c(Br)c2)C(F)(F)F)cc1C(F)(F)F` (stereo partly drawn) [F22, 4-((Z)-3-(3,5-Dibromo-4-chlorophenyl)-1,4,4,4-tetrafluorobut-1-en-1-yl)-N—((R)-1-((2,2,2-trifluoroethyl)sulfonyl)propan-2-yl)-2-(trifluoromethyl)benzamide], the mortality at 50 µg/cm2 in data set [1] and in data set [2] was 50 to 100% throughout. In addition, in data set [3], the mortality at 200 ppm lay within 0 to 80%. Also, in data set [4], the “YFM % Control (or Mortality) rating” value is “A (80-100)”.
Take `CCS(=O)(=O)C[C@@H](C)NC(=O)c1ccc(/C(F)=C/C(c2cc(Br)cc(Br)c2)C(F)(F)F)cc1C(F)(F)F` (stereo partly drawn) [F42, 4-((Z)-3-(3,5-Dibromophenyl)-1,4,4,4-tetrafluorobut-1-en-1-yl)-N—((R)-1-(ethylsulfonyl)propan-2-yl)-2-(trifluoromethyl)benzamide]: the mortality at 50 µg/cm2 in data set [1] and in data set [2] was 50 to 100% in each case. Moreover, in data set [3], the mortality at 200 ppm was 0 to 80%. Also, in data set [4], the “YFM % Control (or Mortality) rating” value was “A (80-100)”.
For `CCS(=O)(=O)C[C@@H](C)NC(=O)c1ccc(/C(F)=C/C(c2cc(Cl)c(F)c(Cl)c2)C(F)(F)F)cc1C(F)(F)F` (stereo partly drawn) [F43, 4-((Z)-3-(3,5-Dichloro-4-fluorophenyl)-1,4,4,4-tetrafluorobut-1-en-1-yl)-N—((R)-1-(ethylsulfonyl)propan-2-yl)-2-(trifluoromethyl)benzamide], the mortality at 50 µg/cm2 in data set [1] and in data set [2] was 50 to 100% in each case. The mortality at 200 ppm in data set [3] lay within 80 to 100%. In addition, the “YFM % Control (or Mortality) rating” value in data set [4] is listed as “A (80-100)”.
With `CCS(=O)(=O)C[C@@H](C)NC(=O)c1ccc(/C(F)=C/C(c2ccc(Cl)c(Cl)c2)C(F)(F)F)cc1C(F)(F)F` (stereo partly drawn) [F46, 4-((Z)-3-(3,4-Dichlorophenyl)-1,4,4,4-tetrafluorobut-1-en-1-yl)-N—((R)-1-(ethylsulfonyl)propan-2-yl)-2-(trifluoromethyl)benzamide], the mortality at 50 µg/cm2 in data set [1] and in data set [2] was 50 to 100% each time. In data set [3], the mortality at 200 ppm fell in the range of 0 to 80%. In addition, the “YFM % Control (or Mortality) rating” value in data set [4] is listed as “B (More than 0-Less than 80)”.
As for `C[C@H](C[S+]([O-])CC(F)(F)F)NC(=O)c1ccc(/C(F)=C/C(c2cc(Cl)cc(Br)c2)C(F)(F)F)cc1C(F)(F)F` (stereo partly drawn) [F68, 4-((Z)-3-(3-Bromo-5-chlorophenyl)-1,4,4,4-tetrafluorobut-1-en-1-yl)-N-((2R)-1-((2,2,2-trifluoroethyl)sulfinyl)propan-2-yl)-2-(trifluoromethyl)benzamide], the mortality at 50 µg/cm2 in data set [1] and in data set [2] was 50 to 100% throughout. In addition, the mortality at 200 ppm in data set [3] is 0 to 80%. In addition, the “YFM % Control (or Mortality) rating” value in data set [4] is listed as “A (80-100)”.
For the compound `C[C@H](CS(=O)(=O)CC(F)(F)F)NC(=O)c1ccc(/C(F)=C/C(c2cc(Br)cc(Br)c2)C(F)(F)F)cc1C(F)(F)F` (stereo partly drawn) [F69, 4-((Z)-3-(3,5-Dibromophenyl)-1,4,4,4-tetrafluorobut-1-en-1-yl)-N—((R)-1-((2,2,2-trifluoroethyl)sulfonyl)propan-2-yl)-2-(trifluoromethyl)benzamide], the mortality at 50 µg/cm2 in data set [1] and in data set [2] was 50 to 100% in each case. Moreover, the mortality at 200 ppm in data set [3] was in the range of 0 to 80%. Besides, the “YFM % Control (or Mortality) rating” value in data set [4] is listed as “A (80-100)”.
Take `C[C@H](C[S+](C)[O-])NC(=O)c1ccc(/C(F)=C/C(c2cc(Cl)c(Cl)c(Cl)c2)C(F)(F)F)cc1C(F)(F)F` (stereo partly drawn) [F88, N-((2R)-1-(Methylsulfinyl)propan-2-yl)-4-((Z)-1,4,4,4-tetrafluoro-3-(3,4,5-trichlorophenyl)but-1-en-1-yl)-2-(trifluoromethyl)benzamide]: the mortality at 50 µg/cm2 in data set [1] and in data set [2] was 50 to 100% each time. For the same compound, the mortality at 200 ppm in data set [3] is 80 to 100%.
On to `C[C@H](CS(=O)(=O)CC(F)(F)F)NC(=O)c1ccc(/C(F)=C/C(c2cc(Cl)c(C(F)F)c(Cl)c2)C(F)(F)F)cc1C(F)(F)F` (some centres unmarked) [F104], for which the mortality at 50 µg/cm2 in data set [1] and in data set [2] was 50 to 100% each time. Moreover, the mortality at 200 ppm in data set [3] came to 0%. Besides, in data set [4], the “YFM % Control (or Mortality) rating” value is on record as “A (80-100)”.
`C[C@H](C[S+]([O-])CCC#N)NC(=O)c1ccc(/C(F)=C/C(c2cc(Cl)c(Cl)c(Cl)c2)C(F)(F)F)cc1C(F)(F)F` (stereo partly drawn) [F122, N-((2R)-1-((2-Cyanoethyl)sulfinyl)propan-2-yl)-4-((Z)-1,4,4,4-tetrafluoro-3-(3,4,5-trichlorophenyl)but-1-en-1-yl)-2-(trifluoromethyl)benzamide]: the mortality at 50 µg/cm2 in data set [1] and in data set [2] was 50 to 100% in each case. In addition, the mortality at 200 ppm in data set [3] is 0 to 80%. In data set [4], the “YFM % Control (or Mortality) rating” value is recorded as “A (80-100)”.
For the compound `C[C@H](CS(=O)(=O)CCC#N)NC(=O)c1ccc(/C(F)=C/C(c2cc(Cl)c(Cl)c(Cl)c2)C(F)(F)F)cc1C(F)(F)F` (stereo partly drawn) [F123, N—((R)-1-((2-cyanoethyl)sulfonyl)propan-2-yl)-4-((Z)-1,4,4,4-tetrafluoro-3-(3,4,5-trichlorophenyl)but-1-en-1-yl)-2-(trifluoromethyl)benzamide], the mortality at 50 µg/cm2 in data set [1] and in data set [2] was 50 to 100% in each case. The mortality at 200 ppm in data set [3] turned out to be 0%. Further, the “YFM % Control (or Mortality) rating” value in data set [4] is on record as “A (80-100)”.
Consider `C[C@H](CS(=O)(=O)CC(F)(F)F)NC(=O)c1ccc(/C(F)=C/C(c2ccc(F)c(Cl)c2)C(F)(F)F)cc1C(F)(F)F` (stereo partly drawn) [PF2, 4-((Z)-3-(3-Chloro-4-fluorophenyl)-1,4,4,4-tetrafluorobut-1-en-1-yl)-N—((R)-1-((2,2,2-trifluoroethyl)sulfonyl)propan-2-yl)-2-(trifluoromethyl)benzamide], for which the mortality at 50 µg/cm2 in data set [1] and in data set [2] was 50 to 100% in each case. Also, the mortality at 200 ppm in data set [3] is 0 to 80%. In addition, the “YFM % Control (or Mortality) rating” value in data set [4] was “B (More than 0-Less than 80)”.
